Results on one compound are retold here after patent US9253979B2, “Methods of controlling insects” (priority 2010, dated 2016).

Holding throughout (format): in vivo, Drosophila melanogaster
Assay [1] concerns Dβ2EMS2 Drosophila strain (lesion in the Dβ2 subunit). Put plainly: Dosage mortality testing, first instar larvae, Dβ2EMS2 strain. The conditions noted are these: for Fold resistance: Dβ2EMS2 strain relative to Line 14. The protocol:
(§1) Dosage mortality testing was conducted on four strains of Drosophila melanogaster. Each of the Drosophila strains tested had at least one lesion in one of the nAChR subunits or was a control strain lacking a lesion. […] The 4A4D Drosophila strain was a double mutant having lesions in both the Dα1 subunit and the Dβ2 subunit. The susceptible Drosophila strain or control Drosophila strain was the wildtype Drosophila strain in which the EMS lesions were generated, and is referred to in Tables 1-4 as the “Line 14” strain.
(§2) Screening was performed on first instar larvae with five replicates of fifty larvae per vial at each concentration to determine the susceptibility of each Drosophila strain to the spinosyn composition and to an imidacloprid composition. The spinosyn composition (spinosad) included 85% spinosyn A and 15% spinosyn D in a sugar solution. Stock solutions were typically made 0.1% w/v in acetone and then diluted to lower concentrations. The spinosyn or imidacloprid compositions were then applied to the insect diet, allowed to dry and then infested with the insect larvae.
(§3) The concentrations of the spinosyn composition and the imidacloprid composition were selected across a range to provide data enabling the effective dose (ED) that produces a response in 50% of the first instar larvae (ED50) and the effective dose that produces a response in 90% of the first instar larvae (ED90) to be calculated. After administering the spinosyn composition or the imidacloprid composition, the first instar larvae were visually monitored for mortality. Data were analyzed using Probit analysis to determine the ED50 and the ED90, along with upper and lower 95% limits.

For assay [2], the system named is Dα1EMS1 Drosophila strain (lesion in the Dα1 nAChR subunit). Put plainly: Dosage mortality testing, first instar larvae, Dα1EMS1 strain. The conditions noted are these: for Fold resistance: Dα1EMS1 strain relative to Line 14. The protocol:
as §1, §2, §3

Assay [3] concerns 4A4D Drosophila strain (double mutant, lesions in both the Dα1 subunit and the Dβ2 subunit). The note with it: for Fold resistance: 4A4D strain relative to Line 14. The protocol: as §1, §2, §3
The test system of assay [4] is Line 14 (susceptible wildtype control) Drosophila strain. The experiment in a line: Dosage mortality testing, first instar larvae, Line 14 strain. The conditions noted are these: applied to insect diet, Probit analysis. On the procedure:
as §1
Screening was performed on first instar larvae with five replicates of fifty larvae per vial at each concentration to determine the susceptibility of each Drosophila strain to the spinosyn composition and to an imidacloprid composition. The spinosyn composition (spinosad) included 85% spinosyn A and 15% spinosyn D in a sugar solution. Stock solutions were typically made 0.1% w/v in acetone and then diluted to lower concentrations. The spinosyn or imidacloprid compositions were then applied to the insect diet, allowed to dry and then infested with the insect larvae. […]

The mark [5] stands for this setting: Dβ2EMS2 strain, first instar larvae, mortality, applied to insect diet, Probit analysis.
[6] abbreviates: Dα1EMS1 strain, first instar larvae, mortality, applied to insect diet, Probit analysis.
Where [7] appears, read: 4A4D strain, first instar larvae, mortality, applied to insect diet, Probit analysis.

Read-outs that look alike come from different tables or passages of the source.

For the compound `O=[N+]([O-])NC1=NCCN1Cc1ccc(Cl)nc1` [imidacloprid composition, imidacloprid], the ED50 came to 4.04 ppm in assay [1] (setting [5]), 2.91 ppm in assay [2] (setting [6]), 3.78 ppm in assay [3] (setting [7]) and 0.14 ppm in assay [4]. Besides, the ED90 was 8.02 ppm in assay [1] (setting [5]), 5.77 ppm in assay [2] (setting [6]), 7.49 ppm in assay [3] (setting [7]) and 0.28 ppm in assay [4]. Moreover, the Fold resistance in assay [1] (ED50 table) came out at 28.69; in assay [1] (ED90 table) it was 28.70; in assay [2] (ED50 table) it was 20.63; in assay [2] (ED90 table), 20.63; in assay [3] (ED50 table) it was 26.81; in assay [3] (ED90 table) it was 26.81.
